Results on one compound are retold here after patent US8367727B2, “Method of using abscisic acid to treat diseases and disorders” (priority 2006, dated 2013).

In one experiment the test system is Total lymphocytes. In words: Lymphocyte blastogenesis test (LBT). The class given is cell-based, mice. Particulars: 100 mg ABA/kg diet. As for the experimental part:
(§1) Single cell suspensions were prepared from the spleen by gently crushing the spleens excised during the necropsy procedure between the frosted ends of microscope glass slides previously autoclaved. Tissue debris were removed by settling, erythrocytes were eliminated by hypotonic lysis and cells finally resuspended in complete RPMI (cRPMI, 10% fetal bovine serum (Hyclone, Logan, Utah), 25 mM HEPES buffer (Sigma, St. Louis, Mo.), 100 units/ml penicillin (Sigma), […] streptomycin (Sigma), 1 mM sodium pyruvate (Sigma), 1 mM nonessential aminoacids (Sigma), and 2 mM essential amino acids (Mediatech), and enumerated with a Coulter Z1 Single Particle Counter (Beckman Coulter, Miami, Fla.).
Wells of 96-well, round bottom microtiter plates were seeded with 2×10^5 splenocytes in a total volume of […] per well. Cells were cultured in cRPMI media with or without 2.5 μg/ml of Concanavalin A (Sigma) for 4 days. On day 4, […] of methyl-[^3Thymidine] was added to each well, and cells we incubate for 20 additional hours. Well contents were harvested onto glass fiber filters using cell harvester, and incorporated radioactivity measured by liquid scintillation counting. Samples were run in triplicate for each animal and ex-vivo treatment. Stimulation indices were calculated by dividing counts per minute of mitogen-stimulated wells by counts per minute of unstimulated wells.

Another experiment concerns db/db mice. In words: Fasting blood glucose in db/db mice fed high-fat diets for 36 days. The experiment is classed as in vivo. Particulars: day 36. On the procedure:
Four week-old, male BKS.Cg-+Lepr^db/+Lepr^db/OlaHsd (db/db) mice were purchased from Harlan Laboratories (Indianapolis, Ind.) and maintained at the animal facilities at Virginia Polytechnic Institute and State University in a room maintained at 75° F., with a 12:12 h light-dark cycle starting from 6:00 AM. All experimental procedures were approved by the Institutional Animal Care and Use Committee of Virginia Polytechnic Institute and State University and met or exceeded requirements of the Public Health Service/National Institutes of Health and the Animal Welfare Act.
Experiment 1: mice (n=25) were fed high-fat (>40% energy from fat), isocaloric, isonitrogenous diets containing 0, 100, 200, 400, and 800 mg of a racemic (±) ABA mixture/kg diet for 36 days (Table 1) (Sigma). These doses were chosen based on the standard concentrations of TZDs utilized in the treatment of NIDDM. The mice were weighed and their food intake was recorded daily. On day 36 of the study fasted mice (12 h) were bled through the caudal vein and fasting blood glucose concentrations were determined. To investigate the ability of ABA to normalize glucose concentrations, an intraperitoneal glucose tolerance test (IPGTT) was performed on day 36 on the fasted mice. Briefly, mice were bled at 0, 10, 25, and 45 minutes following the administration of glucose (2 g/kg) for measurement of plasma glucose levels. […] Weights were recorded for WAT, interscapular brown adipose tissue (BAT), and liver.
Experiment 2: The ABA dose utilized (100 mg ABA/kg) was based on the results obtained from the IPGTT of the ABA titration study (i.e., Experiment 1). Mice in experiment 2 were fed high-fat diets containing 0 or 100 mg ABA/kg for 36 days. Their body weights and food intake was recorded daily, and blood was collected on day 36 of the study during an IPGTT. This IPGTT included one additional 100 minutes time point. […] Weights were recorded for abdominal WAT, BAT, and liver.
Experiment 1 was a dose-titration study, where we fed 4-week old db/db mice (n=25) diabetogenic, high fat diets containing either 0, 100, 200, 400, or 800 mg racemic ABA mixture/kg diet. […] These in vivo results are in agreement with the transfection findings showing no difference in PPAR γ transactivation between 10 and 50 μM ABA.

A further experiment deals with CD4+ T cells. Description: CFSE flow cytometry proliferation assay, Concanavalin A-stimulated splenocytes, CD4+ T cells. The experiment is classed as cell-based, mice. Particulars: 100 mg ABA/kg diet; first 2 generations. On the procedure:
as §1, with “Fla.). […]” for “Fla.).”
Splenocytes at 10^6 cells/ml were seeded in 96-well, round-bottom microtiter plates and incubated incomplete RPMI with or without Concanavalin A (Sigma) at 2.5 μg/ml. […] Following 2 washes in Fluorescence activated cell sorting (FACS) buffer, cells were incubated with streptavidin-PeCy5 (Pharmingen, San Diego, Calif.) for the biotinylated anti-mouse CD4 antibody. Cells were analyzed by 3-color flow cytometry (CFSE, phycoerythrin and PeCy5) in a FACScalibur instrument (Becton Dickinson). Ten thousand events were acquired, and data were analyzed using the Cell Quest Pro™ software (Becton Dickinson). Proliferation was assessed by the decrease in fluorescent intensity of CFSE staining. […]

Experiment [1] deals with colon inflammatory gene expression. Description: Colon gene expression by real-time quantitative PCR, DSS colitis. The experiment is classed as in vivo, mice. The text has this:
Complementary DNA (cDNA) concentrations for genes of interest were examined by real-time quantitative PCR using an iCycler IQ System and the iQ SYBR green supermix (Bio-Rad). A standard curve was generated for each gene using 10-fold dilutions of purified amplicons starting at 5 pg of cDNA and used later to calculate the starting amount of target cDNA in the unknown samples. SYBR green I is a general double-stranded DNA intercalating dye and may therefore detect nonspecific products and primer/dimers in addition to the amplicon of interest. In order to determine the number of products synthesized during the real-time PCR, a melting curve analysis was performed on each product. Real-time PCR was used to measure the starting amount of nucleic acid of each unknown sample of cDNA on the same 96-well plate. Results are presented as starting quantity of target cDNA (picograms) per microgram of total RNA.

Marks after values point to notes of the source that are not given here.

Regarding `CC1=CC(=O)CC(C)(C)C1(O)/C=C/C(C)=C\C(=O)O` (racemic) [ABA, abscisic acid], the “LBT Total lymphocytes SI” value in the experiment on Total lymphocytes was found to be 9.22. Further, the “fasting blood glucose (FBG) concentrations versus control diet” value in the experiment on db/db mice (100 to 800 mg ABA/kg diet) is recorded as “significantly lower”. Moreover, the Fasting glucose in the experiment with db/db mice (Experiment 1, 100 mg ABA/kg diet) was 219.6^b mg/dL. Besides, the Fasting glucose with db/db mice (Experiment 1, 200 mg ABA/kg diet) is given as 210.2^b mg/dL. The Fasting glucose in the experiment on db/db mice (Experiment 1, 400 mg ABA/kg diet) is listed as 185.6^a mg/dL. Also, in the experiment with db/db mice (Experiment 1, 800 mg ABA/kg diet), the Fasting glucose is listed as 202.0^b mg/dL. Further, the Fasting glucose in the experiment with db/db mice (Experiment 2, 100 mg ABA/kg diet) was 190.7^b mg/dL. Also, in the experiment on CD4+ T cells, the “CD4+ T cells RPI1” value was 17.72. Besides, in experiment [1] (ABA-supplementation, DSS), the “colonic expression of E-selectin” value is “significantly lowered”, the “colonic expression of ICAM-1” value is “no affect”, the “colonic expression of MAdCAM-1” value was “significantly lowered” and the “colonic expression of PECAM-1” value was “no affect”. Besides, the “colonic expression of VCAM-1” value in experiment [1] (ABA-supplementation, DSS) is “significantly lowered”. For the same compound, in experiment [1] (ABA-treated mice), the “colonic IL-6” value is reported as “significantly attenuated levels”, the “colonic MMP-9” value was “significantly attenuated levels” and the “colonic iNOS” value is given as “significantly attenuated levels”. For the same compound, the “colonic PPAR γ, CD36 and FABP4 expression” value in experiment [1] (colons of ABA-fed mice) is “Neither colonic PPAR γ nor its responsive genes CD36, or FABP4 were significantly affected”.
